{
  "source": "patent US20110038940A1",
  "about": "“PULVERULENT COMPOSITION AND A PROCESS FOR PREPARING THE SAME” (INNOV'IA, priority 2008, published 2011)",
  "key": {"[1]": {"experiment": "Sedimentation test (stability of the dispersion): sediment size and dry content after 24 hours", "type": "physicochemical", "details": "1.5 g in 8.5 ml demineralised water, 2 min vortex; for Dry content of the sediment: sediment after 24 hours", "protocol": "The stability is measured by the sedimentation test as follow: • 10 ml of solution is prepared using 8.5 ml of demineralised water and 1.5 g of the pulverulent composition A or B in special sedimentation tubes graduated from 0.1 ml up to 10 ml; • complete dispersion is assumed by a 2 min vortex mixing; • sedimentation is controlled at defined times to evaluate the amount of sediment; • quality of the dispersion is evaluated by measuring: • the dispersion of the solids all over the aqueous solution by measuring the height of the sediments of the hydrated particles. For the same amount of pulverulent composition, the higher the sediments, the more dispersed the particles in the aqueous solution • the dry content of the sediment after 24 hours."}, "[2]": {"experiment": "Sedimentation of dispersed composition in water measured by turbidity (back scattering laser, Turbiscan MA 1000)", "type": "physicochemical", "details": "10 g in 90 ml distilled water at 20° C., bottom of tube", "protocol": "10 g of the water-dispersible pulverulent composition A is dispersed in 90 ml of distilled water at 20° C. in a tube. The sedimentation rate is measured by turbidity using a back scattering laser device (Turbiscan MA 1000) along the tube. The back light is measured along the tube at different time so that evolution of the sedimentation can be followed along time. The sedimentation is measured at the bottom of the tube."}, "[3]": {"details": "water; cited from earlier work"}, "[4]": {"experiment": "Natural sedimentation in conical graduated tube, 15% dispersion in distilled water; sediment volume and dry solids", "type": "physicochemical", "details": "15% (net w/total w) in distilled water at 20° C., 10 ml", "protocol": "The water-dispersible pulverulent composition A is dispersed in distilled water at 20° C. at a concentration of 15% (net w/total w) in a conical graduated sedimentation tube (total volume of the solution is 10 ml). The quantity of the sediment (in ml) is measured along time (Table 3).\nThe encapsulation efficiency can also be assessed by measuring the hydration of the granules of the water-dispersible pulverulent composition of the invention. This has been evaluated by measuring the dry solid content of the sediment (% dry matter) (Table 3)."}},
  "data": [
    {"smiles": "Cc1cc2nc3c(=O)[nH]c(=O)nc-3n(C[C@H](O)[C@H](O)[C@H](O)CO)c2cc1C", "note": "[Riboflavin]", "values": [
      {"measurement": "Sediment after 24 H", "setting": "[1]; 24 h", "result": 1.5, "unit": "mL"},
      {"measurement": "Dry content of the sediment", "setting": "[1]; listed as Riboflavin (raw material)", "result": 39.4, "unit": "%"},
      {"measurement": "Dry content of the sediment", "setting": "[1]; listed as Riboflavin (raw material) (control)", "result": 39.4, "unit": "%"},
      {"measurement": "Dry content of the sediment", "setting": "[1]; listed as Riboflavine: Raw material (control)", "result": 39.4, "unit": "%"},
      {"measurement": "% Back light after 2 min dispersion", "setting": "[2]; 2 min", "result": 2, "unit": "%"},
      {"measurement": "% Back light after 6 min dispersion", "setting": "[2]; 6 min", "result": 3.1, "unit": "%"},
      {"measurement": "solubility", "setting": "[3]", "result": 70, "unit": "µg/mL"},
      {"measurement": "Sediment volume after 1 Hour dispersion", "setting": "[4]; 1 hour", "result": 0.6, "unit": "mL"},
      {"measurement": "Dry solids content of the sediment after 24 Hour sedimentation", "setting": "[4]; 24 hours", "result": 39.3, "unit": "%"}
    ]}
  ]
}
